According to patent US8946431B2, “2-(substituted ethynyl)quinoline derivatives as mGLUr5 antagonists” (Korea Institute of Science and Technology, priority 2013, dated 2015):

Key:
mGluR5 [1] = target: T1, mGluR5 (Homo sapiens, UniProt P41594); test: Assay for m-GluR5 activity using FDSS6000 (calcium mobilization by L-glutamate in mGluR5/HEK293 cells); format: cell-based; conditions: L-glutamate 10 uM, HEK cells expressing m-GluR5; for inhibition at 1 µM / inhibition at 10 µM: HEK293, read-out: % Inhibition rate (mGluR5)
T1 construct: host or cells: HEK293 (human embryonic kidney) cells stably expressing m-GluR5
T1 sequence (P41594 21-1212): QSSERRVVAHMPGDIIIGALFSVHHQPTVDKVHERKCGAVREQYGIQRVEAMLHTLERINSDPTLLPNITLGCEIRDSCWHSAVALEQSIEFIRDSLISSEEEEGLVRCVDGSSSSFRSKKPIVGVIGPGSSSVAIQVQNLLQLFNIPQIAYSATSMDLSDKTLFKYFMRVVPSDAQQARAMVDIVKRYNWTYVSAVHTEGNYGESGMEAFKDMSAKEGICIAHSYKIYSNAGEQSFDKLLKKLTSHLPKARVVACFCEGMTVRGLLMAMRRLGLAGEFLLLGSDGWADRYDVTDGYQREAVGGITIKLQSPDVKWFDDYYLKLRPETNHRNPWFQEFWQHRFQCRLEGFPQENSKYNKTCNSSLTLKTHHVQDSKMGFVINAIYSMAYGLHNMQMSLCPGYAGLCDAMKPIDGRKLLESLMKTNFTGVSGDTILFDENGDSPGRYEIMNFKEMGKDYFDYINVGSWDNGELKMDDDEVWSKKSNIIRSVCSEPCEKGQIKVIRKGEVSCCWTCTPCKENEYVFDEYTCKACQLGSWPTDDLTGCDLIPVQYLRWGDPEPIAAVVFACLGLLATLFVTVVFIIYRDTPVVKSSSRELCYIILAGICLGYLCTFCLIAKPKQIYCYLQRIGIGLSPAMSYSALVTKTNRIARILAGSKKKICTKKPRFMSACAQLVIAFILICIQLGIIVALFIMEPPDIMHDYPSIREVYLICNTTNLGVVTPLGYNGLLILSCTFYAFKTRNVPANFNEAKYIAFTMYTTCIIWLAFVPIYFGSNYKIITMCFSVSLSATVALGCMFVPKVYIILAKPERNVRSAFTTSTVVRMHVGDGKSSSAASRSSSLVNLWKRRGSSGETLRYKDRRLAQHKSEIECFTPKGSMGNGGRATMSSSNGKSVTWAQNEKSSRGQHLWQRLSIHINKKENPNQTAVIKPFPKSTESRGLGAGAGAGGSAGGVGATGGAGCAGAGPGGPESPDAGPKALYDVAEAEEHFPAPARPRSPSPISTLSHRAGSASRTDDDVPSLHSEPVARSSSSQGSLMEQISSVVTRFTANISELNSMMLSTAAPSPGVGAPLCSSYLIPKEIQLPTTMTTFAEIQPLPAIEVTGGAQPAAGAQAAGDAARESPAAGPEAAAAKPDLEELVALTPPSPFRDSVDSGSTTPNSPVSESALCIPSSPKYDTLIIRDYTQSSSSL
Protocol: Inhibitory activity (%) of the compound represented by Formula 1 on calcium mobilization developed at a high concentration of glutamate in mGluR5/HEK293 cells was measured by using a high throughput FDSS6000.
After HEK cells stably expressing m-GluR5 (Human embryonic kidney cell line; m-GluR5: Yonsei University) were prepared at a density of 4×10^4/Ml per well, aliquots of 100 μl from the cell suspension were distributed evenly into a 96-well plate and incubated for 18 hr at 37° C., 5% CO2. The well plate was washed with a HBSS buffer to remove the culture medium, and reacted with a HBSS buffer containing a Ca^2+ fluorescent dye (FLIPR Calcium 5 assay kit: Molecular Devices) for 30 min at 37° C., 5% CO2, thereby labeling with the fluorescent dye. Separately from the 96-well plate including the cells, another 96-well plate including L-glutamate (final concentration: 10 uM) capable of activating m-GluR5 and a blacking agent was prepared. Since most of cell-based HTS devices are equipped with a liquid application system for injection of a drug, but have no liquid sucking system, the blocking agent to be tested and L-glutamate were respectively provided at a 6-fold higher concentration in a HBSS buffer at the amount of 25 μl, diluted by six-times at the final cell plate volume of 150 μl, and then used in this assay. Briefly, the FDSS6000 assay was carried out by recording a reference level of 20 sec, pre-treating with a blocking agent for 75 sec, and then measuring the change in intracellular calcium level depending on the administration of L-glutamate. After the area of a 480/520 ratio value in a control without treatment of a test drug was set to 100%, an inhibitory effect of the test drug was calculated as a percentage (%) thereon.
For accurate calcium imaging, the light source of 4 xenon lamps in FDSS6000 were radiated to selectively expose the cells to the excitation wavelength (480 nm) by a computer-controlled filter wheel. Data were obtained at intervals of 1.23 sec. The emitter fluorescence light inflowed through a 520 nm long-pass filter was obtained as an average 480/520 ratio value for each well in the 96-wells by using a CCD camera and a digital fluorescence analyzer in FDSS6000. All image data and analyses were obtained by using a FDSS6000-exclusive program from Hamamatsu Photonics.

[2] = HLM (human liver microsomal) stability; format: in vitro ADME; conditions: human liver microsomes
CYP2C9 = CYP2C9 (Homo sapiens, UniProt P11712); test: CYP inhibitory rate, CYP2C9; format: in vitro ADME
CYP2C9, sequence (P11712 whole entry): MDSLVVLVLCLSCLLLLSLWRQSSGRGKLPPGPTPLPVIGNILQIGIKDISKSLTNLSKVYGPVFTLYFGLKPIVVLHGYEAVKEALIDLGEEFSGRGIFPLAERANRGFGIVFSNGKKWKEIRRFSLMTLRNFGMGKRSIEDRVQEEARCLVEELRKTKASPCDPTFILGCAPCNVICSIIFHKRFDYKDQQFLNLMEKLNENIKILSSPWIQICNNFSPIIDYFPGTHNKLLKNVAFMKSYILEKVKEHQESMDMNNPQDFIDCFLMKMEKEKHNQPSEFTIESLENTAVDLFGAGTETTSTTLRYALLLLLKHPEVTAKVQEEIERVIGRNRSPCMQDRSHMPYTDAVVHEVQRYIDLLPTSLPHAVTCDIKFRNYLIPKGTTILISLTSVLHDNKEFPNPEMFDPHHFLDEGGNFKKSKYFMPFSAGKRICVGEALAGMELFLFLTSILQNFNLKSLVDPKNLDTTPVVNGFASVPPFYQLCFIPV

CYP3A4 = CYP3A4 (Homo sapiens, UniProt P08684); test: CYP inhibitory rate, CYP3A4; format: in vitro ADME
CYP3A4, sequence (P08684 whole entry): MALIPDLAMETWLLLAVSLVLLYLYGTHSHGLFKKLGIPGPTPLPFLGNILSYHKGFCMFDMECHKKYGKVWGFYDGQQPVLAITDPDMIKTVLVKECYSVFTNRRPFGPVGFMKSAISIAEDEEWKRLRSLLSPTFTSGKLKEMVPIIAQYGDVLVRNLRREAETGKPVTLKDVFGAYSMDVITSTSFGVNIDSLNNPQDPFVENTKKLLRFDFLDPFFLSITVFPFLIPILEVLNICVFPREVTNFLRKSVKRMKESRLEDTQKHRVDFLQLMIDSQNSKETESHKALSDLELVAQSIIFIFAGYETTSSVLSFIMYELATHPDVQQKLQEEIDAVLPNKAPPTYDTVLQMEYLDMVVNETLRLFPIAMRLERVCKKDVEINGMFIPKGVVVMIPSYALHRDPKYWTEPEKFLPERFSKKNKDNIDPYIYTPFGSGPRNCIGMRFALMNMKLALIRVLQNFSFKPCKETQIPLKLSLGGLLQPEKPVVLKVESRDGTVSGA

CYP2D6 = CYP2D6 (Homo sapiens, UniProt P10635); test: CYP inhibitory rate, CYP2D6; format: in vitro ADME
CYP2D6, sequence (P10635 whole entry): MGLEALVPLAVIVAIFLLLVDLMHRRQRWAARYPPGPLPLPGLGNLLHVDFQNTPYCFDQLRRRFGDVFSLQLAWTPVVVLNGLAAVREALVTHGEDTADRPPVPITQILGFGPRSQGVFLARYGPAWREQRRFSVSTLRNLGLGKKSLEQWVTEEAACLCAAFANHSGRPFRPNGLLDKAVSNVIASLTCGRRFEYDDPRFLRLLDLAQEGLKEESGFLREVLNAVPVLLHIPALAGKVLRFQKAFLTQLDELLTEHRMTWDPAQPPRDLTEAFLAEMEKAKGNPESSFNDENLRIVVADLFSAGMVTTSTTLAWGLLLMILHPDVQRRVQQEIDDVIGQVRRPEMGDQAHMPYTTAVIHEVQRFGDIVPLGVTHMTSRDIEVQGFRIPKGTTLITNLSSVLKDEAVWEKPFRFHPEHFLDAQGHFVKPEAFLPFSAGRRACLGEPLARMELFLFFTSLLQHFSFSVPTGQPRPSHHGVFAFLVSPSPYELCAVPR

hERG = hERG (Homo sapiens, UniProt Q12809); test: Inhibitory concentration (IC50) on hERG
hERG, sequence (Q12809 whole entry): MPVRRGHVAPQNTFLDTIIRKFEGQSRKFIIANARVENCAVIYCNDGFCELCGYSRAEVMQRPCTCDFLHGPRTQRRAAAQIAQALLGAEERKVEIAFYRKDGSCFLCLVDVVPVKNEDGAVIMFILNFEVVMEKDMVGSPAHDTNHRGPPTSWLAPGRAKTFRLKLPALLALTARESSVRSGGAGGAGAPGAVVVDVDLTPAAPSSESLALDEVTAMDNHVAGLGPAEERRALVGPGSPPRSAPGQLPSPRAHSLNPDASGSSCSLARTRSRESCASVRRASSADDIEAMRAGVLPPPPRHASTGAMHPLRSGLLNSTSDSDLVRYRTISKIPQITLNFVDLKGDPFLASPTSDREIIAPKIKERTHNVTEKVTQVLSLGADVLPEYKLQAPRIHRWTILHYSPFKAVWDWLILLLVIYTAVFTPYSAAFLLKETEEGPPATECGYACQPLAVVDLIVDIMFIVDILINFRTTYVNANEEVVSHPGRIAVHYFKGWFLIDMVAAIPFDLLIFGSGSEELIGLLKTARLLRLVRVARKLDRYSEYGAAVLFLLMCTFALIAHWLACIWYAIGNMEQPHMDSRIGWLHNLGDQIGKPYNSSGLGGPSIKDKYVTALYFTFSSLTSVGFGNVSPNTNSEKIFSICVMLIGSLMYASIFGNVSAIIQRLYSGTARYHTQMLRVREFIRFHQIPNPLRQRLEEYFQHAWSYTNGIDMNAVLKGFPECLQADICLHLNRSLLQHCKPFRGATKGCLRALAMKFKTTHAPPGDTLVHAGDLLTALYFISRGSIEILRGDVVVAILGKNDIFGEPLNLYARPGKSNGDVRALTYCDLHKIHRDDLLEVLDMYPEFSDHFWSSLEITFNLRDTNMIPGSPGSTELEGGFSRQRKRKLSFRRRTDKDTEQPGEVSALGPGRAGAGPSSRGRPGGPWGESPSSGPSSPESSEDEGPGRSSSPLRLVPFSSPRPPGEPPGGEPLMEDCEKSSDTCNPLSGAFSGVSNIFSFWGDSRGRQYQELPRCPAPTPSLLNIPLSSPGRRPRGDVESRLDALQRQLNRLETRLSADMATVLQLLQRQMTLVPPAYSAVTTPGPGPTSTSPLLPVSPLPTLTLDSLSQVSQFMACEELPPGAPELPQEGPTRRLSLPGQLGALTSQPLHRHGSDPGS

mGluR5 [3] = target: T1, mGluR5; test: Inhibitory concentration (IC50) on mGluR5; format: cell-based

Row | SMILES | inhibition at 1 µM (mGluR5 [1]; 1 μM compound) [%] | inhibition at 10 µM (mGluR5 [1]; 10 μM compound) [%] | also measured
1 | C(#Cc1ccc2ccccc2n1)c1ccccc1 [Example 11, 2-(Phenylethynyl)quinoline] | 35.9 | 67.7 | –
2 | Clc1cccc2nc(C#Cc3ccccn3)ccc12 [Example 12, 5-Chloro-2-(pyridine-2-ylethynyl)quinoline] | 31 | 64.3 | –
3 | FC(F)(F)c1cccnc1C#Cc1ccc2ccccc2n1 [Example 13, 2-((3-(Trifluoromethyl)pyridine-2-yl)ethynyl)quinoline] | 9.49 | 16.4 | –
4 | COc1cccc2nc(C#Cc3ccccc3)ccc12 [Example 14, 5-Methoxy-2-(phenylethynyl)quinoline] | 63.6 | 68 | HLM % remaining after 30 min [2]: <1%; CYP (% remaining @ 10 μM) CYP2C9 (CYP2C9): 55%; CYP (% remaining @ 10 μM) CYP3A4 (CYP3A4): 50%; CYP (% remaining @ 10 μM) CYP2D6 (CYP2D6): >99%
5 | CC(C)(C)C(=O)Oc1cccc2nc(C#Cc3ccccc3)ccc12 [Example 15, 2-(Phenylethynyl)quinoline-5-ylpivalate] | – | – | % Inhibition rate (mGluR5) (mGluR5 [1]; 1 μM compound): 24.03%; % Inhibition rate (mGluR5) (mGluR5 [1]; 10 μM compound): 23.77%
6 | Oc1cccc2nc(C#Cc3ccccc3)ccc12 [Example 16, 2-(Phenylethynyl)quinoline-5-ol] | 18 | 24.3 | –
7 | Clc1cccc2nc(C#Cc3ccccc3)ccc12 [Example 17, 5-Chloro-2-(phenylethynyl)quinoline] | 11.7 | 8.02 | –
8 | Brc1cccc2nc(C#Cc3ccccc3)ccc12 [Example 18, 5-Bromo-2-(phenylethynyl)quinoline] | 21.1 | 20.7 | –
9 | C(#Cc1ccc2ccccc2n1)c1cccnc1 [Example 19, 2-(Pyridine-3-ylethynyl)quinoline] | 43.9 | 65.8 | –
10 | COc1cccc2nc(C#Cc3cccnc3)ccc12 [Example 20, 5-Methoxy-2-(pyridine-3-ylethynyl)quinoline] | 67.7 | 67.7 | –
11 | CCOc1cccc2nc(C#Cc3cccnc3)ccc12 [Example 21, 5-Ethoxy-2-(pyridine-3-ylethynyl)quinoline] | 47.2 | 66.6 | –
12 | CC(C)(C)C(=O)Oc1cccc2nc(C#Cc3cccnc3)ccc12 [Example 22, 2-(Pyridine-3-ylethynyl)quinoline-5-ylpivalate] | – | – | % Inhibition rate (mGluR5) (mGluR5 [1]; 1 μM compound): 10.56%; % Inhibition rate (mGluR5) (mGluR5 [1]; 10 μM compound): 28.5%
13 | Oc1cccc2nc(C#Cc3cccnc3)ccc12 [Example 23, 2-(Pyridine-3-ylethynyl)quinoline-5-ol] | 25.2 | 17.6 | –
14 | Clc1cccc2nc(C#Cc3cccnc3)ccc12 [Example 24, 5-Chloro-2-(pyridine-3-ylethynyl)quinoline] | 11.2 | 28.4 | –
15 | Brc1cccc2nc(C#Cc3cccnc3)ccc12 [Example 25, 5-Bromo-2-(pyridine-3-ylethynyl)quinoline] | 22 | 40.1 | –
16 | CC(C)(C)C(=O)Oc1cccc2nc(C#Cc3ccccn3)ccc12 [Example 27, 2-(Pyridine-2-ylethynyl)quinoline-5-ylpivalate] | – | – | % Inhibition rate (mGluR5) (mGluR5 [1]; 1 μM compound): 17.12%; % Inhibition rate (mGluR5) (mGluR5 [1]; 10 μM compound): 62.44%
17 | Oc1cccc2nc(C#Cc3ccccn3)ccc12 [Example 28, 2-(Pyridine-2-ylethynyl)quinoline-5-ol] | 17.4 | 22.1 | –

Row | SMILES | inhibition at 1 µM (mGluR5 [1]; 1 μM compound) [%] | inhibition at 10 µM (mGluR5 [1]; 10 μM compound) [%] | also measured
18 | Brc1cccc2nc(C#Cc3ccccn3)ccc12 [Example 29, 5-Bromo-2-(pyridine-2-ylethynyl)quinoline] | 56.7 | 77.5 | –
19 | Fc1cccnc1C#Cc1ccc2ccccc2n1 [Example 30, 2-((3-Fluoropyridine-2-yl)ethynyl)quinoline] | 31.3 | 55.2 | –
20 | Cc1cccnc1C#Cc1ccc2ccccc2n1 [Example 31, 2-((3-Methylpyridine-2-yl)ethynyl)quinoline] | 18.9 | 40.1 | –
21 | FC(F)(F)c1ccnc(C#Cc2ccc3ccccc3n2)c1 [Example 32, 2-((4-(Trifluoromethyl)pyridine-2-yl)ethynyl)quinoline] | 23.3 | 58 | –
22 | N#Cc1ccnc(C#Cc2ccc3ccccc3n2)c1 [Example 33, 2-(Quinoline-2-ylethynyl)isonicotinonitrile] | 35.2 | 76.1 | –
23 | Cc1ccnc(C#Cc2ccc3ccccc3n2)c1 [Example 34, 2-((4-Methylpyridine-2-yl)ethynyl)quinoline] | 21.9 | 66.5 | –
24 | FC(F)(F)c1ccc(C#Cc2ccc3ccccc3n2)nc1 [Example 35, 2-((5-(Trifluoromethyl)pyridine-2-yl)ethynyl)quinoline] | 13 | 50.7 | –
25 | Fc1ccc(C#Cc2ccc3ccccc3n2)nc1 [Example 36, 2-((5-Fluoropyridine-2-yl)ethynyl)quinoline] | 33.9 | 63.3 | –
26 | Cc1ccc(C#Cc2ccc3ccccc3n2)nc1 [Example 37, 2-((5-Methylpyridine-2-yl)ethynyl)quinoline] | 29 | 66.3 | –
27 | FC(F)(F)c1cccc(C#Cc2ccc3ccccc3n2)n1 [Example 38, 2-((6-(Trifluoromethyl)pyridine-2-yl)ethynyl)quinoline] | 15.8 | 28.7 | –
28 | N#Cc1cccc(C#Cc2ccc3ccccc3n2)n1 [Example 39, 6-(Quinoline-2-ylethynyl)picolinonitrile] | 33 | 64.8 | HLM % remaining after 30 min [2]: 98%; CYP (% remaining @ 10 μM) CYP2C9 (CYP2C9): 52%; IC50 (hERG): 22.7 ± 7.04 µM; CYP (% remaining @ 10 μM) CYP3A4 (CYP3A4): 56%; IC50 (mGluR5 [3]): 0.75 ± 0.17 µM; CYP (% remaining @ 10 μM) CYP2D6 (CYP2D6): 78%
29 | Fc1cccc(C#Cc2ccc3ccccc3n2)n1 [Example 40, 2-((6-Fluoropyridine-2-yl)ethynyl)quinoline] | 29.6 | 46.9 | –
30 | COc1cccc(C#Cc2ccc3ccccc3n2)n1 [Example 41, 2-((6-Methoxypyridine-2-yl)ethynyl)quinoline] | 16.6 | 48.6 | –
31 | C(#Cc1ncccn1)c1ccc2ccccc2n1 [Example 42, 2-(Pyrimidine-2-ylethynyl)quinoline] | 17.1 | 28.6 | –
32 | FC(F)(F)c1ccnc(C#Cc2ccc3ccccc3n2)n1 [Example 43, 2-((4-(Trifluoromethyl)pyrimidine-2-yl)ethynyl)quinoline] | 17.3 | 15.9 | –
33 | Fc1cnc(C#Cc2ccc3ccccc3n2)nc1 [Example 44, 2-((5-Fluoropyrimidine-2-yl)ethynyl)quinoline] | 16 | 15.6 | –
34 | C(#Cc1ccc2ccccc2n1)c1cncnc1 [Example 45, 2-(Pyrimidine-5-ylethynyl)quinoline] | 13.6 | 22.4 | –
